These molecules were tested against T1, androgen receptor (AR-LBD) (Rattus norvegicus, UniProt P15207) (assay: Evaluation of androgen receptor affinity (PolarScreen Androgen Receptor Competitor Assay Kit, Red; fluorescence polarization)). Details: 22° C. for 5 hours, relative to binding rate of 1 μM DHT, read-out: AR affinity (pEC50) (converted).
T1 construct: 5 μL of 2×AR-LBD/Fluoromone AL Red Complex contained in the kit; purchased Invitrogen
T1 sequence (P15207 651-882 limits assumed): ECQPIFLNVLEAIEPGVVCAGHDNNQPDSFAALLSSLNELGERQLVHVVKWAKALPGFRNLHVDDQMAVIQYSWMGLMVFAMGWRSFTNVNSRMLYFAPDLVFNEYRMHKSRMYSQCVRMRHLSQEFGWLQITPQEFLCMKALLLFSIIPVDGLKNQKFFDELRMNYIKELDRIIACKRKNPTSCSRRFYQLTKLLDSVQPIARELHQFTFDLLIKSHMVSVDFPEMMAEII
Outline: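 Fluorescence polarization competition assay: compound was incubated in duplicate with the kit's AR-LBD/Fluoromone AL Red complex for 5 h at 22 °C. Binding was expressed relative to 1 μM DHT, and pEC50 was derived by 4-parameter fit.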

| Structure (SMILES) | EC50 |
| --- | --- |
| Cc1sc(N(CCn2ccnc2)c2ccc(C#N)cc2)nc1C(=O)NS(C)(=O)=O [Compound 458, 2-[4-cyano-N-(2-imidazol-1-ylethyl)anilino]-5-methyl-N-methylsulfonyl-thiazole-4-carboxamide] | > 2000 nM |
| Cc1sc(N(Cc2ccccc2)c2ccccc2F)nc1C(=O)NS(C)(=O)=O [Compound 30, 2-(N-benzyl-2-fluoro-anilino)-5-methyl-N-methylsulfonyl-thiazole-4-carboxamide] | > 2000 nM |
| Cc1sc(N(CCc2cccc3ccccc23)c2ccc(C#N)cc2)nc1C(=O)NS(C)(=O)=O [Compound 441, 2-[4-cyano-N-[2-(1-naphthyl)ethyl]anilino]-5-methyl-N-methylsulfonyl-thiazole-4-carboxamide] | 251 nM |
| Cc1sc(N(CC(=O)N(C)c2ccccc2)c2ccc(C#N)cc2)nc1C(=O)NS(C)(=O)=O [Compound 426, 2-(4-cyano-N-[2-(N-methylanilino)-2-oxo-ethyl]anilino)-5-methyl-N-methylsulfonyl-thiazole-4-carboxamide] | > 2000 nM |
| Cc1sc(N(Cc2ccccc2)Cc2ccccn2)nc1C(=O)NS(C)(=O)=O [Example 295, 2-[benzyl(2-pyridylmethyl)amino]-5-methyl-N-methylsulfonyl-thiazole-4-carboxamide] | > 2000 nM |
| Cc1sc(N(Cc2ccccc2)c2cc3ccccc3cn2)nc1C(=O)NS(C)(=O)=O [Compound 745, 2-[benzyl(3-isoquinolyl)amino]-5-methyl-N-methylsulfonyl-thiazole-4-carboxamide] | > 2000 nM |
| Cc1sc(N(Cc2cccc(OCCO)c2)c2ccc(C#N)cc2)nc1C(=O)NS(C)(=O)=O [Compound 587, 2-[4-cyano-N-[[3-(2-hydroxyethoxy)phenyl]methyl]anilino]-5-methyl-N-methylsulfonyl-thiazole-4-carboxamide] | 501 nM |
| COCCOc1cccc(N(Cc2ccccc2)c2nc(C(=O)NS(C)(=O)=O)c(C)s2)c1 [Compound 398, 2-[N-benzyl-3-(2-methoxyethoxy)anilino]-5-methyl-N-methylsulfonyl-thiazole-4-carboxamide] | > 2000 nM |
| Cc1sc(N(CCc2ccc(O)cc2)c2ccc(C#N)cc2)nc1C(=O)NS(C)(=O)=O [Compound 62, 2-[4-cyano-N-[2-(4-hydroxyphenyl)ethyl]anilino]-5-methyl-N-methylsulfonyl-thiazole-4-carboxamide] | 1580 nM |
| Cc1nc(CCN(Cc2ccccc2)c2nc(C(=O)NS(C)(=O)=O)c(C)s2)cs1 [Compound 706, 2-[benzyl-[2-(2-methylthiazol-4-yl)ethyl]amino]-5-methyl-N-methylsulfonyl-thiazole-4-carboxamide] | > 2000 nM |
| Cc1sc(N(CCC(C)(C)C)Cc2ccccc2)nc1C(=O)NS(C)(=O)=O [Compound 686, 2-[benzyl(3,3-dimethylbutyl)amino]-5-methyl-N-methylsulfonyl-thiazole-4-carboxamide] | > 2000 nM |
| CNC(=O)COc1ccc(N(Cc2ccccc2)c2nc(C(=O)NS(C)(=O)=O)c(C)s2)cc1 [Example 213, 2-[N-benzyl-4-[2-(methylamino)-2-oxo-ethoxy]anilino]-5-methyl-N-methylsulfonyl-thiazole-4-carboxamide] | > 2000 nM |
| Cc1cc(C)n(CCN(Cc2ccccc2)c2nc(C(=O)NS(C)(=O)=O)c(C)s2)n1 [Compound 689, 2-[benzyl-[2-(3,5-dimethylpyrazol-1-yl)ethyl]amino]-5-methyl-N-methylsulfonyl-thiazole-4-carboxamide] | > 2000 nM |
| Cc1sc(N(CCc2ccc(C#N)cc2)CC2CCCCC2)nc1C(=O)NS(=O)(=O)C(F)(F)F [Compound 719, 2-[2-(4-cyanophenyl)ethyl-(cyclohexylmethyl)amino]-5-methyl-N-(trifluoromethylsulfonyl)thiazole-4-carboxamide] | > 2000 nM |
| COc1ccccc1N(Cc1ccccc1)c1nc(C(=O)NS(C)(=O)=O)c(C)s1 [Compound 47, 2-(N-benzyl-2-methoxy-anilino)-5-methyl-N-methylsulfonyl-thiazole-4-carboxamide] | > 2000 nM |
| Cc1cc(CN(c2ccc(C#N)cc2)c2nc(C(=O)NS(C)(=O)=O)c(C)s2)no1 [Compound 445, 2-[4-cyano-N-[(5-methylisoxazol-3-yl)methyl]anilino]-5-methyl-N-methylsulfonyl-thiazole-4-carboxamide] | 631 nM |
| Cc1sc(N(CC(=O)N(C)C2CCCCC2)c2ccc(C#N)cc2)nc1C(=O)NS(C)(=O)=O [Compound 424, 2-(4-cyano-N-[2-[cyclohexyl(methyl)amino]-2-oxo-ethyl]anilino)-5-methyl-N-methylsulfonyl-thiazole-4-carboxamide] | > 2000 nM |
| Cc1sc(N(Cc2ccccc2)Cc2ccccc2)nc1C(=O)NS(C)(=O)=O [Example 288, 2-(dibenzylamino)-5-methyl-N-methylsulfonyl-thiazole-4-carboxamide] | > 2000 nM |

| Structure (SMILES) | EC50 |
| --- | --- |
| Cc1cccc(CN(c2ccc(C#N)cc2)c2nc(C(=O)NS(C)(=O)=O)c(Cl)s2)c1 [Example 266, 5-chloro-2-[4-cyano-N-(m-tolylmethyl)anilino]-N-methylsulfonyl-thiazole-4-carboxamide] | 31.6 nM |
| Cc1sc(N(CCc2ccc3nccnc3c2)Cc2ccccc2)nc1C(=O)NS(C)(=O)=O [Compound 690, 2-[benzyl(2-quinoxalin-6-ylethyl)amino]-5-methyl-N-methylsulfonyl-thiazole-4-carboxamide] | 1000 nM |
| Cc1sc(N(Cc2ccccc2)c2ccc3ccn(C)c3c2)nc1C(=O)NS(C)(=O)=O [Compound 746, 2-[benzyl-(1-methylindol-6-yl)amino]-5-methyl-N-methylsulfonyl-thiazole-4-carboxamide] | > 2000 nM |
| Cc1noc(C)c1CN(CCc1ccc(Cl)cc1)c1nc(C(=O)NS(C)(=O)=O)c(C)s1 [Compound 151, 2-[2-(4-chlorophenyl)ethyl-[(3,5-dimethylisoxazol-4-yl)methyl]amino]-5-methyl-N-methylsulfonyl-thiazole-4-carboxamide] | > 2000 nM |
| Cc1sc(N(CCc2ccc(C(=O)OC(C)(C)C)cc2)Cc2ccccc2)nc1C(=O)NS(C)(=O)=O [Compound 327, tert-butyl 4-[2-[benzyl-[5-methyl-4-(methylsulfonylcarbamoyl)thiazol-2-yl]amino]ethyl]benzoate] | > 2000 nM |
| Cc1sc(N(CCc2ccc(N(C)C)cc2)c2ccc(C#N)cc2)nc1C(=O)NS(C)(=O)=O [Compound 480, 2-[4-cyano-N-[2-[4-(dimethylamino)phenyl]ethyl]anilino]-5-methyl-N-methylsulfonyl-thiazole-4-carboxamide] | > 2000 nM |
| Cc1sc(N(CCc2ccc(C#N)cc2)CC2CCCCC2)nc1C(=O)NS(=O)(=O)Cc1cccc(F)c1 [Compound 720, 2-[2-(4-cyanophenyl)ethyl-(cyclohexylmethyl)amino]-N-[(3-fluorophenyl)methylsulfonyl]-5-methyl-thiazole-4-carboxamide] | > 2000 nM |
| Cc1ccn(CCN(Cc2ccccc2)c2nc(C(=O)NS(C)(=O)=O)c(C)s2)n1 [Compound 681, 2-[benzyl-[2-(3-methylpyrazol-1-yl)ethyl]amino]-5-methyl-N-methylsulfonyl-thiazole-4-carboxamide] | > 2000 nM |
| Cc1sc(N(Cc2ccccc2)c2cnccn2)nc1C(=O)NS(C)(=O)=O [Compound 55, 2-[benzyl(pyrazin-2-yl)amino]-5-methyl-N-methylsulfonyl-thiazole-4-carboxamide] | > 2000 nM |
| Cc1ccccc1CN(c1ccc(C#N)cc1)c1nc(C(=O)NS(C)(=O)=O)c(Cl)s1 [Example 259, 5-chloro-2-[4-cyano-N-(o-tolylmethyl)anilino]-N-methylsulfonyl-thiazole-4-carboxamide] | 79.4 nM |
| Cc1sc(N(CCC2CCCN2C)c2ccc(C#N)cc2)nc1C(=O)NS(C)(=O)=O (centres unmarked) [Compound 481, 2-[4-cyano-N-[2-(1-methylpyrrolidin-2-yl)ethyl]anilino]-5-methyl-N-methylsulfonyl-thiazole-4-carboxamide] | > 2000 nM |
| Cc1sc(N(Cc2ccccc2)c2ccccc2Cl)nc1C(=O)NS(C)(=O)=O [Compound 33, 2-(N-benzyl-2-chloro-anilino)-5-methyl-N-methylsulfonyl-thiazole-4-carboxamide] | > 2000 nM |
| Cc1sc(N(Cc2ccccc2)c2ccc(C#N)cc2)nc1C(=O)NS(=O)(=O)CCN1C(=O)CCC1=O [Compound 383, 2-(N-benzyl-4-cyano-anilino)-N-[2-(2,5-dioxopyrrolidin-1-yl)ethylsulfonyl]-5-methyl-thiazole-4-carboxamide] | > 2000 nM |
| Cc1sc(N(C[C@H]2CCC[C@@H](CO)C2)c2ccc(C#N)cc2)nc1C(=O)NS(C)(=O)=O (racemic) [Compound 347, 2-[4-cyano-N-[[cis-3-(hydroxymethyl)cyclohexyl]methyl]anilino]-5-methyl-N-methylsulfonyl-thiazole-4-carboxamide] | 1260 nM |
| Cc1ccc(CN(c2ccc(C#N)cc2)c2nc(C(=O)NS(C)(=O)=O)c(Cl)s2)cc1 [Example 267, 5-chloro-2-[4-cyano-N-(p-tolylmethyl)anilino]-N-methylsulfonyl-thiazole-4-carboxamide] | 25.1 nM |
| Cc1sc(N(Cc2ccccc2)c2ccc(C#N)cc2)nc1C(=O)NS(=O)(=O)/C=C/c1ccccc1 [Compound 385, 2-(N-benzyl-4-cyano-anilino)-5-methyl-N-[(E)-styryl]sulfonyl-thiazole-4-carboxamide] | 794 nM |
| Cc1sc(N(Cc2ccccc2)c2ccnc3ccccc23)nc1C(=O)NS(C)(=O)=O [Example 236, 2-[benzyl(4-quinolyl)amino]-5-methyl-N-methylsulfonyl-thiazole-4-carboxamide] | > 2000 nM |

— patent US10689354B2, “Aminoazole derivative” (Teijin Pharma Limited, priority 2015, dated 2020)
